# Tests used:
# THP-1 cells = assay: Measurement of intracellular cAMP concentration in PMA-treated THP-1 cells; format: cell-based; details: THP-1 cells treated with PMA, co-incubated with 10 to 30 μg/ml (13 to 39 μM) of coenzyme A
# Method: In a humid incubator under conditions of 37° C. and 5% CO2, THP-1 cells were cultured in an RPMI1640 medium supplemented with 10% fetal bovine serum, 1% penicillin and streptomycin, and 1% L-glutamine. The THP-1 cells were exposed to 50 ng/ml of PMA (phorbol 12-myristate 13-acetate) for 48 hours, followed by washing. Then, the cells were cultured at 37° C. in the presence of 1 mM 3-isobutyl-1-methyl-xanthine. After 10 minutes, the cells were stimulated with 30% mother's milk (AD: n=55, non-AD: n=55) for 10 minutes, and lysed with cell lysis buffer (Molecular Devices). In some experiments, THP-1 cells treated with 50 ng/ml of PMA for 48 hours were exposed to 10 μM prostaglandin E2 (PGE2). The intracellular cAMP level was measured using CatchPoint™ cyclicAMP fluorescent assay kit (Molecular Devices LLC) in accordance with the maker instruction. In some experiments, delta (Δ)-cAMP was calculated by subtracting the cAMP concentration in THP-1 stimulated with PMA without adjuvant stimulation from the cAMP concentration in THP-1 stimulated with PMA with adjuvant stimulation.
# [1] = test system: Human monocyte-derived dendritic cells (Mo-DCs); assay: Analysis of T cell-differentiation using dendritic cells (mixed lymphocyte reaction, IFNγ and IL-5 ELISA); format: cell-based; details: Mo-DCs pretreated with 1 μg/ml of coenzyme A (FIG. 3B)
# Method: Human Mo-DCs and CD45RA-positive naive T cells (purity of more than 99%) were prepared according to the previous report (Takagi, R. et al., J Immunol 181: 186-189, 2008).
# The immature Mo-DCs were stimulated with 1 to 10% of a liquid fraction of mother's milk or 0 to 10 μg/ml of coenzyme A. Two days after culturing with the liquid fraction or coenzyme A, to induce a mixed lymphocyte reaction (MLR), the cell component was further cultured together with HLA-DR-nonshared allogenic CD4-positive naive T cells in an RPMI1640 medium supplemented with 10% human serum for 6 to 8 days. Then, the T cells were restimulated with an anti-CD3 antibody and an anti-CD28 antibody (BD Pharmingen Inc.). After 48 hours, the culture supernatant was collected to analyze IFNγ and IL-5 by ELISA using IFNγ and IL-5 ELISA kits (R&D systems, Inc.).
# SJL/J mice = assay: Mixed lymphocyte reaction using CD3ε-negative cells harvested from mice to which coenzyme A had been orally administered; format: in vivo
# Method: SJL/J mice (H-2^s) and Nc/Nga mice (non H-2^s) were purchased from Charles River Inc. and Japan SLC, Inc., respectively. 50 μg/ml of coenzyme A was orally administered to the SJL/J mice. Two days later, CD3ε-negative cells were obtained from mesenteric lymph node cells using “[…]” (Miltenyi Biotec Inc.). On the same day, CD62L-positive naive CD4-positive T cells were obtained from the spleens of the Nc/Nga mice using “CD4^+ T cell isolation kit” and “CD62L^+ T cell isolation kit” (Miltenyi Biotec Inc.). Then, 1×10^4 CD3ε-negative cells and 1×10^5 allogenic CD62L-positive naive CD4-positive T cells were co-cultured in a 96-well flat-bottomed culture plate. A mixed lymphocyte reaction (MLR) was induced in an RPMI1640 medium supplemented with 10% FCS for 7 days. Next, the T cells were restimulated with an anti-CD3 antibody and an anti-CD28 antibody (Biolegends, Inc.). The culture supernatant were harvested 16 hours later, and analyzed for IFNγ, IL-4, and
# IL-5 using IFNγ, IL-4 and IL-5 ELISA kits (R&D systems, Inc.).
# Coenzyme A-containing drinking water (10 to 20 μg/kg/day) was orally administered to mice. […] cells were isolated from the mesenteric lymph node 2 days after the coenzyme A administration, and co-cultured with allogenic CD62L-positive naive CD4-positive T cells.
# [2] = oral, drinking water 10 to 20 μg/kg/day, mesenteric lymph node cells isolated 2 days after administration (FIG. 4A)
# [3] = treated mice, oral 10 to 20 μg/kg/day (FIG. 4B)
compound,measurement,setting,value
CC(C)(COP(=O)(O)OP(=O)(O)OC[C@H]1O[C@@H](n2cnc3c(N)ncnc32)[C@H](O)[C@@H]1OP(=O)(O)O)[C@@H](O)C(=O)NCCC(=O)NCCS [coenzyme A],intracellular cAMP,THP-1 cells,elevated
same,differentiation of allogenic naive CD4-positive T cells into Th2 cells,[1],differentiated into Th2 cells
same,IFNγ production in T cells (MLR),SJL/J mice; [2],No statistically significant difference
same,IL-4 production in T cells (MLR),SJL/J mice; [2],significantly induced
same,IL-5 production in T cells (MLR),SJL/J mice; [2],significantly induced
same,IL-4/IFNγ ratio,SJL/J mice; [3],significantly high
same,IL-5/IFN ratio,SJL/J mice; [3],significantly high
